Laboratory results as given in the kinase profiling compilation of Christmann-Franck et al. (2016).

Assays:
Assay in all cases: radiometric filter-binding kinase assay
MAP2K1 (human) = MAP2K1 (human) (UniProt Q02750)
SRC (human) = SRC (human) (UniProt P12931)
MAPK9 (human) = MAPK9 (human) (UniProt P45984)
PKN2 (human) = PKN2 (human) (UniProt Q16513)
NEK2 (human) = NEK2 (human) (UniProt P51955)
PRKACA (human) = PRKACA (human) (UniProt P17612)
CHEK1 (human) = CHEK1 (human) (UniProt O14757)
PRKAA1 or PRKAA2 (rat) = details: accession and sequence are those of the human protein
MAPK3 (human) = MAPK3 (human) (UniProt P27361)
STK3 (human) = STK3 (human) (UniProt Q13188)
MKNK1 (human) = MKNK1 (human) (UniProt Q9BUB5)
IKBKB (human) = IKBKB (human) (UniProt O14920)
PRKCA (human) = PRKCA (human) (UniProt P17252)
PIM2 (human) = PIM2 (human) (UniProt Q9P1W9)
CAMKK2 (human) = CAMKK2 (human) (UniProt Q96RR4)
MAPKAPK2 (human) = MAPKAPK2 (human) (UniProt P49137)
RPS6KA1 KD1 KD2 (human) = RPS6KA1 KD1 KD2 (human) (UniProt Q15418)
MAPK15 (human) = MAPK15 (human) (UniProt Q8TD08)
PHKG1 (human) = PHKG1 (human) (UniProt Q16816)
MAPK1 (human) = MAPK1 (human) (UniProt P28482)
IGF1R (human) = IGF1R (human) (UniProt P08069)
[1] = tested on: AKT2 (human), P31751 [S474D]
MKNK2 (human) = MKNK2 (human) (UniProt Q9HBH9)
YES1 (human) = YES1 (human) (UniProt P07947)
CHEK2 (human) = CHEK2 (human) (UniProt O96017)

MAPK1 (human), sequence (P28482 whole entry, looked up): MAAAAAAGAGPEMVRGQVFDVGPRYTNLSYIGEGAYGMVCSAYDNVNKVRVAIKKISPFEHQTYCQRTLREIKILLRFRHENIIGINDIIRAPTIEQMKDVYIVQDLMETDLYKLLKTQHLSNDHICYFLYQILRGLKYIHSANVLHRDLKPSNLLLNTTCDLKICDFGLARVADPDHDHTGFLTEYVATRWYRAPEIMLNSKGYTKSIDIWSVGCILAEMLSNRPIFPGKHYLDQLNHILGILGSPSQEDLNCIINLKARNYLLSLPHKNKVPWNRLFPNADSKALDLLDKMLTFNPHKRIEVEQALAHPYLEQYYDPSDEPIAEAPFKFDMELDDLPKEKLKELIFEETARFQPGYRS
PIM2 (human), sequence (Q9P1W9 whole entry, looked up): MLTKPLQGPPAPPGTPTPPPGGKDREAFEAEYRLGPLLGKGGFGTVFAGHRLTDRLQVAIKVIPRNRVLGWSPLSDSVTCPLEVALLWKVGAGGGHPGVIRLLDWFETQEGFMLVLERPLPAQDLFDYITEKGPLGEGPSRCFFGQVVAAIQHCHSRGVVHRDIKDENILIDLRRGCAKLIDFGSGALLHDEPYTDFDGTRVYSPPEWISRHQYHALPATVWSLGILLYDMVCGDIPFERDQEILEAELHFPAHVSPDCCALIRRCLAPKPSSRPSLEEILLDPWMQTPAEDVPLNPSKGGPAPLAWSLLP
PHKG1 (human), sequence (Q16816 whole entry, looked up): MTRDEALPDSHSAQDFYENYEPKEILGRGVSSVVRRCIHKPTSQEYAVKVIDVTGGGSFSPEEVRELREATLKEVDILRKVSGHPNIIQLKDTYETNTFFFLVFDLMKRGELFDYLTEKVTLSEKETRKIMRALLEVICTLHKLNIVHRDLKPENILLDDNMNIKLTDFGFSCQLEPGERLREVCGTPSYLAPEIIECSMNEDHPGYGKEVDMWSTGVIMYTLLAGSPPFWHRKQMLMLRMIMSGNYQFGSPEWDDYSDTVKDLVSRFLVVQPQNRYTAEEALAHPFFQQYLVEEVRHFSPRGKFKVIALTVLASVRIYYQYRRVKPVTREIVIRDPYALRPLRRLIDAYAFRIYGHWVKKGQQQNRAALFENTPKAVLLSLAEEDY
RPS6KA1 KD1 KD2 (human), sequence (Q15418 whole entry, looked up): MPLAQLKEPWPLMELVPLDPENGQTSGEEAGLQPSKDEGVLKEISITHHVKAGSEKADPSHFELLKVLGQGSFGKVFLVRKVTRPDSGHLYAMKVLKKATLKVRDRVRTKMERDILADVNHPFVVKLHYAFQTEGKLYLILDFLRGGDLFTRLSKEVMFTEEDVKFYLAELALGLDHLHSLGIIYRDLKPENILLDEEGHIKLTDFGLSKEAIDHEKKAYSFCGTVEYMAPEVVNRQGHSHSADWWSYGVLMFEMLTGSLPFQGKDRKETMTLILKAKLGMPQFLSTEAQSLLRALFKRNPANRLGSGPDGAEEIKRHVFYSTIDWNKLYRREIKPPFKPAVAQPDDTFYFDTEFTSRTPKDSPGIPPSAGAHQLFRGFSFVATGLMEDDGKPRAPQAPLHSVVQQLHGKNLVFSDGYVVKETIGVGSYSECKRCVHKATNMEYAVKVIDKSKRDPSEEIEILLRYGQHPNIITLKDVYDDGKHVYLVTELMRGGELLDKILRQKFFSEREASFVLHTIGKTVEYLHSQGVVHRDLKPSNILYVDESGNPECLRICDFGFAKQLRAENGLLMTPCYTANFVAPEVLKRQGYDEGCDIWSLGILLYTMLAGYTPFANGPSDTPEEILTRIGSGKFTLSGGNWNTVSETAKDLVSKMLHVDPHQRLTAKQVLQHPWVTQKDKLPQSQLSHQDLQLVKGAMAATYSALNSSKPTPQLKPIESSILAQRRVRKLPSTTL
IKBKB (human), sequence (O14920 whole entry, looked up): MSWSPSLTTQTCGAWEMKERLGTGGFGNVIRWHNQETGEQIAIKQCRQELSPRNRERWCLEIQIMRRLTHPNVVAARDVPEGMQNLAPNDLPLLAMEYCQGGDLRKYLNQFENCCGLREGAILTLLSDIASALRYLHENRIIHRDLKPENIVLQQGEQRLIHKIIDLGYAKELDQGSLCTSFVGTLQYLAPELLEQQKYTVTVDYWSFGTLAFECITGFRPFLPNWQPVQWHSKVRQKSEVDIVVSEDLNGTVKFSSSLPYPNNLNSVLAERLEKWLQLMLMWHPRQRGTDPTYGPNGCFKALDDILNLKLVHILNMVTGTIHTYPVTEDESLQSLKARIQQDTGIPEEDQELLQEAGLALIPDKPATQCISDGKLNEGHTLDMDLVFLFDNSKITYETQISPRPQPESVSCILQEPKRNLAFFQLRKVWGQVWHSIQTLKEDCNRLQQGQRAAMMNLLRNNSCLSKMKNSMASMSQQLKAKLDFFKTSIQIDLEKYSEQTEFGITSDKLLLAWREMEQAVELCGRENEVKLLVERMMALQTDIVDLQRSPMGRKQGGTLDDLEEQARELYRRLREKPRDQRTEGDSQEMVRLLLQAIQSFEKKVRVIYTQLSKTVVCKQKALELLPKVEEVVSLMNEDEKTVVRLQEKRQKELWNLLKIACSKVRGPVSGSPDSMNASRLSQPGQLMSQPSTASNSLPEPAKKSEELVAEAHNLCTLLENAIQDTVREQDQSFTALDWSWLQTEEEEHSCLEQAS
YES1 (human), sequence (P07947 whole entry, looked up): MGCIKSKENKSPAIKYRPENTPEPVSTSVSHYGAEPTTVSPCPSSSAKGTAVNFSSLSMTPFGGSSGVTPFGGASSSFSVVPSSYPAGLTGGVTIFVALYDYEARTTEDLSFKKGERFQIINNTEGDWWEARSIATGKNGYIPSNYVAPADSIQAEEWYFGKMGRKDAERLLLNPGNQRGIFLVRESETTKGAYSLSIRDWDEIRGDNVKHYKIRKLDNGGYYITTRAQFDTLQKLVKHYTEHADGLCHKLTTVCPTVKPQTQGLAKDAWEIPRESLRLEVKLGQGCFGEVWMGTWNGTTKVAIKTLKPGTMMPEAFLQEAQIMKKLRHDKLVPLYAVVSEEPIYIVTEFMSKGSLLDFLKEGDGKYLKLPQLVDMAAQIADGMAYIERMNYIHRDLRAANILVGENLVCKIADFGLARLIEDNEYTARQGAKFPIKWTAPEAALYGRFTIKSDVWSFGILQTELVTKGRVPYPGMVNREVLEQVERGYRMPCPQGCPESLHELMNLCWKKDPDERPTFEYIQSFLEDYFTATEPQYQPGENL
STK3 (human), sequence (Q13188 whole entry, looked up): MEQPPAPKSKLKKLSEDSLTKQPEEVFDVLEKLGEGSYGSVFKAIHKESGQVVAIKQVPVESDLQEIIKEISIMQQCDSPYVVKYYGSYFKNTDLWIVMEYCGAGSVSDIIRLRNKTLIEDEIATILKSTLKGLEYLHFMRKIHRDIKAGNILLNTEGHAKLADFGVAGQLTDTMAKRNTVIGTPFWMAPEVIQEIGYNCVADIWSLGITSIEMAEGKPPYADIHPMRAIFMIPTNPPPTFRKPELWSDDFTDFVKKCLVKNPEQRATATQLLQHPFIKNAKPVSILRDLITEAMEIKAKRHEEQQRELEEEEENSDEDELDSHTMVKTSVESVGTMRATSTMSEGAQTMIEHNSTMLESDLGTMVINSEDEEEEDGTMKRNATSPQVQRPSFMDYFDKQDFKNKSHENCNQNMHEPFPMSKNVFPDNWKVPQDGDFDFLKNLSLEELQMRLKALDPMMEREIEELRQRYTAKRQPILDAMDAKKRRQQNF
MAPK3 (human), sequence (P27361 whole entry, looked up): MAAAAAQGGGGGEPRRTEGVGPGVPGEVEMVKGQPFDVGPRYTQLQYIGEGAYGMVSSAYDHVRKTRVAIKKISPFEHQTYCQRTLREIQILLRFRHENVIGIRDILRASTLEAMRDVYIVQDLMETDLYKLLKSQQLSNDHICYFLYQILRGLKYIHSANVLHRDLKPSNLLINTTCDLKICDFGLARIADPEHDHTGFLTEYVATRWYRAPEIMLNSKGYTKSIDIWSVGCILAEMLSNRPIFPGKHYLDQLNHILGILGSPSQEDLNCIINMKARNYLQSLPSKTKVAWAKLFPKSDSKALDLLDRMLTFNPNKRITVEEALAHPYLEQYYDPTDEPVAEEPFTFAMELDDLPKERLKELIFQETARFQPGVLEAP
AKT2 (human), P31751 [S474D], sequence (P31751 whole entry S474D, looked up): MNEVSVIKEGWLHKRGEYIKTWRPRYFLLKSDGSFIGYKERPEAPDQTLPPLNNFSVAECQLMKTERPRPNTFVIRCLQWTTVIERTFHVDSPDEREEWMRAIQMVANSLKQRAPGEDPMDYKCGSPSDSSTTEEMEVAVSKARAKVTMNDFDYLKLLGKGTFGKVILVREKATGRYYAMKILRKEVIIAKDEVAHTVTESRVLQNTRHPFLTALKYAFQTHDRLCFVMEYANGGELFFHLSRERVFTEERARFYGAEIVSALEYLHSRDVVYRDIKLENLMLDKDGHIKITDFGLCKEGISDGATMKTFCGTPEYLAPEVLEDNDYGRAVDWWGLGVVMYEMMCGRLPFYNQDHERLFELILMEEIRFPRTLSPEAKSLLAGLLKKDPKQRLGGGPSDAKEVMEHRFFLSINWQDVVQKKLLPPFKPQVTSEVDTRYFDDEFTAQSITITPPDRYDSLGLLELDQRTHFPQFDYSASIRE
MAPK9 (human), sequence (P45984 whole entry, looked up): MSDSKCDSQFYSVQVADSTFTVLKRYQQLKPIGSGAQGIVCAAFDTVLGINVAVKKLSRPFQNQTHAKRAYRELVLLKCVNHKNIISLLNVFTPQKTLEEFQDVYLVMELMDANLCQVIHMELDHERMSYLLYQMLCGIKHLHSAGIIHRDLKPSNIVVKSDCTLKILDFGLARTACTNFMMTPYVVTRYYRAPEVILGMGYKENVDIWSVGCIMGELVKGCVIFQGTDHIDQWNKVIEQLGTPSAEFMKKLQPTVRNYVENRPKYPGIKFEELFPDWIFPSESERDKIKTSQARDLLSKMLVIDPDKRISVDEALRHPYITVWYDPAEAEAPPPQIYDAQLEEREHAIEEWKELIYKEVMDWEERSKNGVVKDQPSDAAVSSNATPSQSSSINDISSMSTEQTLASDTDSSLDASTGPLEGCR

With `C/C(=C1/C(=O)Nc2ccc(NC(N)=O)cc21)c1ccc[nH]1` the residual activity (MAP2K1 (human); compound 0.001 µM) was 87%, the residual activity (MAP2K1 (human); compound 0.01 µM) was 33% and the residual activity (MAP2K1 (human); compound 0.1 µM) was 7%. It also gave a residual activity (SRC (human); compound 0.001 µM) of 84%, a residual activity (SRC (human); compound 0.01 µM) of 79% and a residual activity (SRC (human); compound 0.1 µM) of 71%. For the same molecule, the residual activity (MAPK9 (human); compound 0.01 µM) was 123%, the residual activity (MAPK9 (human); compound 0.1 µM) was 118% and the residual activity (PKN2 (human); compound 0.001 µM) was 67%. For the same molecule, the residual activity (PKN2 (human); compound 0.01 µM) was 61%, the residual activity (PKN2 (human); compound 0.1 µM) was 36% and the residual activity (NEK2 (human); compound 0.001 µM) was 92%. It also gave a residual activity (NEK2 (human); compound 0.01 µM) of 92%, a residual activity (NEK2 (human); compound 0.1 µM) of 86% and a residual activity (PRKACA (human); compound 0.001 µM) of 92%. The residual activity (PRKACA (human); compound 0.01 µM) was 87%, the residual activity (PRKACA (human); compound 0.1 µM) was 81% and the residual activity (CHEK1 (human); compound 0.001 µM) was 89%. For the same molecule, the residual activity (CHEK1 (human); compound 0.1 µM) was 21%, the residual activity (PRKAA1 or PRKAA2 (rat); compound 0.001 µM) was 62% and the residual activity (PRKAA1 or PRKAA2 (rat); compound 0.01 µM) was 25%. It also gave a residual activity (PRKAA1 or PRKAA2 (rat); compound 0.1 µM) of 7%, a residual activity (MAPK3 (human); compound 0.001 µM) of 97% and a residual activity (MAPK3 (human); compound 0.01 µM) of 89%. The residual activity (MAPK3 (human); compound 0.1 µM) was 82%, the residual activity (STK3 (human); compound 0.001 µM) was 83% and the residual activity (STK3 (human); compound 0.01 µM) was 36%. For the same molecule, the residual activity (STK3 (human); compound 0.1 µM) was 10%, the residual activity (MKNK1 (human); compound 0.001 µM) was 92% and the residual activity (MKNK1 (human); compound 0.01 µM) was 87%. The residual activity (MKNK1 (human); compound 0.1 µM) was 82%, the residual activity (IKBKB (human); compound 0.001 µM) was 76% and the residual activity (IKBKB (human); compound 0.01 µM) was 74%. For the same molecule, the residual activity (PRKCA (human); compound 0.001 µM) was 102%, the residual activity (PRKCA (human); compound 0.01 µM) was 113% and the residual activity (PRKCA (human); compound 0.1 µM) was 107%. For the same molecule, the residual activity (PIM2 (human); compound 0.01 µM) was 92%, the residual activity (PIM2 (human); compound 0.1 µM) was 65% and the residual activity (CAMKK2 (human); compound 0.001 µM) was 101%. It also gave a residual activity (CAMKK2 (human); compound 0.01 µM) of 90%, a residual activity (CAMKK2 (human); compound 0.1 µM) of 60% and a residual activity (MAPKAPK2 (human); compound 0.001 µM) of 98%. It also gave a residual activity (MAPKAPK2 (human); compound 0.01 µM) of 86%, a residual activity (RPS6KA1 KD1 KD2 (human); compound 0.001 µM) of 89% and a residual activity (RPS6KA1 KD1 KD2 (human); compound 0.01 µM) of 75%. The residual activity (RPS6KA1 KD1 KD2 (human); compound 0.1 µM) was 24%, the residual activity (MAPK15 (human); compound 0.001 µM) was 85% and the residual activity (MAPK15 (human); compound 0.01 µM) was 49%. For the same molecule, the residual activity (MAPK15 (human); compound 0.1 µM) was 7%, the residual activity (PHKG1 (human); compound 0.001 µM) was 97% and the residual activity (PHKG1 (human); compound 0.01 µM) was 66%. The residual activity (PHKG1 (human); compound 0.1 µM) was 18%, the residual activity (MAPK1 (human); compound 0.001 µM) was 108% and the residual activity (MAPK1 (human); compound 0.01 µM) was 95%. The residual activity (MAPK1 (human); compound 0.1 µM) was 79%, the residual activity (IGF1R (human); compound 0.1 µM) was 94% and the residual activity ([1]; compound 0.001 µM) was 79%. It also gave a residual activity ([1]; compound 0.01 µM) of 82%, a residual activity (MKNK2 (human); compound 0.001 µM) of 93% and a residual activity (MKNK2 (human); compound 0.01 µM) of 86%. For the same molecule, the residual activity (MKNK2 (human); compound 0.1 µM) was 78%, the residual activity (YES1 (human); compound 0.001 µM) was 77% and the residual activity (YES1 (human); compound 0.01 µM) was 60%. For the same molecule, the residual activity (YES1 (human); compound 0.1 µM) was 42%, the residual activity (CHEK2 (human); compound 0.001 µM) was 32% and the residual activity (CHEK2 (human); compound 0.01 µM) was 7%. It also gave a residual activity (CHEK2 (human); compound 0.1 µM) of 0%.

`NC(=O)Nc1ccc2c(c1)/C(=C/c1cc(-c3cccnc3)c[nH]1)C(=O)N2` showed a residual activity (MAP2K1 (human); compound 0.1 µM) of 8%, a residual activity (MAP2K1 (human); compound 1.0 µM) of 1% and a residual activity (MAP2K1 (human); compound 10.0 µM) of 2%. The residual activity (SRC (human); compound 0.1 µM) was 41%, the residual activity (SRC (human); compound 1.0 µM) was 7% and the residual activity (SRC (human); compound 10.0 µM) was 1%. It also gave a residual activity (MAPK9 (human); compound 1.0 µM) of 43%, a residual activity (MAPK9 (human); compound 10.0 µM) of 17% and a residual activity (PKN2 (human); compound 0.1 µM) of 25%. The residual activity (PKN2 (human); compound 1.0 µM) was 5%, the residual activity (PKN2 (human); compound 10.0 µM) was 6% and the residual activity (NEK2 (human); compound 0.1 µM) was 100%. The residual activity (NEK2 (human); compound 1.0 µM) was 75%, the residual activity (NEK2 (human); compound 10.0 µM) was 28% and the residual activity (PRKACA (human); compound 0.1 µM) was 78%. The residual activity (PRKACA (human); compound 1.0 µM) was 66%, the residual activity (PRKACA (human); compound 10.0 µM) was 32% and the residual activity (CHEK1 (human); compound 0.1 µM) was 85%. For the same molecule, the residual activity (CHEK1 (human); compound 1.0 µM) was 4%, the residual activity (CHEK1 (human); compound 10.0 µM) was 1% and the residual activity (PRKAA1 or PRKAA2 (rat); compound 0.1 µM) was 5%. It also gave a residual activity (PRKAA1 or PRKAA2 (rat); compound 1.0 µM) of 6%, a residual activity (PRKAA1 or PRKAA2 (rat); compound 10.0 µM) of 4% and a residual activity (MAPK3 (human); compound 0.1 µM) of 71%. It also gave a residual activity (MAPK3 (human); compound 10.0 µM) of 4%, a residual activity (STK3 (human); compound 0.1 µM) of 8% and a residual activity (STK3 (human); compound 1.0 µM) of 2%. For the same molecule, the residual activity (STK3 (human); compound 10.0 µM) was 0%, the residual activity (MKNK1 (human); compound 0.1 µM) was 80% and the residual activity (MKNK1 (human); compound 1.0 µM) was 54%. For the same molecule, the residual activity (MKNK1 (human); compound 10.0 µM) was 30%, the residual activity (IKBKB (human); compound 0.1 µM) was 75% and the residual activity (IKBKB (human); compound 10.0 µM) was 26%. For the same molecule, the residual activity (PRKCA (human); compound 0.1 µM) was 106%, the residual activity (PRKCA (human); compound 1.0 µM) was 83% and the residual activity (PRKCA (human); compound 10.0 µM) was 27%. The residual activity (PIM2 (human); compound 0.1 µM) was 76%, the residual activity (PIM2 (human); compound 1.0 µM) was 34% and the residual activity (PIM2 (human); compound 10.0 µM) was 8%. For the same molecule, the residual activity (CAMKK2 (human); compound 0.1 µM) was 67%, the residual activity (CAMKK2 (human); compound 1.0 µM) was 41% and the residual activity (CAMKK2 (human); compound 10.0 µM) was 35%. The residual activity (MAPKAPK2 (human); compound 0.1 µM) was 86%, the residual activity (MAPKAPK2 (human); compound 1.0 µM) was 49% and the residual activity (MAPKAPK2 (human); compound 10.0 µM) was 10%. For the same molecule, the residual activity (RPS6KA1 KD1 KD2 (human); compound 0.1 µM) was 24%, the residual activity (RPS6KA1 KD1 KD2 (human); compound 1.0 µM) was 10% and the residual activity (RPS6KA1 KD1 KD2 (human); compound 10.0 µM) was 5%. The residual activity (MAPK15 (human); compound 0.1 µM) was 5%, the residual activity (MAPK15 (human); compound 1.0 µM) was 2% and the residual activity (MAPK15 (human); compound 10.0 µM) was 1%. For the same molecule, the residual activity (PHKG1 (human); compound 0.1 µM) was 13%, the residual activity (PHKG1 (human); compound 1.0 µM) was 1% and the residual activity (PHKG1 (human); compound 10.0 µM) was 0%. It also gave a residual activity (MAPK1 (human); compound 0.1 µM) of 81%, a residual activity (MAPK1 (human); compound 1.0 µM) of 41% and a residual activity (MAPK1 (human); compound 10.0 µM) of 16%. The residual activity (IGF1R (human); compound 1.0 µM) was 33%, the residual activity (IGF1R (human); compound 10.0 µM) was 1% and the residual activity ([1]; compound 0.1 µM) was 88%. It also gave a residual activity ([1]; compound 1.0 µM) of 77%, a residual activity ([1]; compound 10.0 µM) of 36% and a residual activity (MKNK2 (human); compound 0.1 µM) of 75%. For the same molecule, the residual activity (MKNK2 (human); compound 1.0 µM) was 46%, the residual activity (MKNK2 (human); compound 10.0 µM) was 16% and the residual activity (YES1 (human); compound 0.1 µM) was 32%. It also gave a residual activity (YES1 (human); compound 1.0 µM) of 8%, a residual activity (YES1 (human); compound 10.0 µM) of 3% and a residual activity (CHEK2 (human); compound 0.1 µM) of -1%. For the same molecule, the residual activity (CHEK2 (human); compound 1.0 µM) was -5% and the residual activity (CHEK2 (human); compound 10.0 µM) was 1%.
